From publication PMC5895798, “Allosteric regulation alters carrier domain translocation in pyruvate carboxylase” (Nature Communications, 2018) come the findings set out here.

Common to all, as to type: biochemical
Assay [1] has as its target T1, RePC (Rhizobium etli, UniProt Q2K340).
T1 construct: gene pyc; full length, N-terminal (His)9 tag, pET-17b, E. coli BL21(DE3) with BirA (biotinylated), 126 kDa subunit, homotetramer
The assay is described as follows: coupled malate dehydrogenase assay of pyruvate carboxylation, […] nm. Conditions: hybrid tetramer population (hybrid A) of two co-expressed domain-inactivated mutants; no acetyl CoA; 25 mM NaHCO3, 2.5 mM MgATP, 12 mM pyruvate, pH 7.8, 25 °C; allosteric; read-out: + 0 mM acetyl coenzyme A / Ki.

In assay [2] the target is T2, AnPC (Aspergillus nidulans, UniProt Q5B4R8).
T2 construct: gene ANIA_04462; full length, N-terminal (His)9 tag, pET-17b, E. coli BL21(DE3) with BirA (biotinylated), 130 kDa subunit, tetramer
T2 sequence (Q5B4R8 1-1196): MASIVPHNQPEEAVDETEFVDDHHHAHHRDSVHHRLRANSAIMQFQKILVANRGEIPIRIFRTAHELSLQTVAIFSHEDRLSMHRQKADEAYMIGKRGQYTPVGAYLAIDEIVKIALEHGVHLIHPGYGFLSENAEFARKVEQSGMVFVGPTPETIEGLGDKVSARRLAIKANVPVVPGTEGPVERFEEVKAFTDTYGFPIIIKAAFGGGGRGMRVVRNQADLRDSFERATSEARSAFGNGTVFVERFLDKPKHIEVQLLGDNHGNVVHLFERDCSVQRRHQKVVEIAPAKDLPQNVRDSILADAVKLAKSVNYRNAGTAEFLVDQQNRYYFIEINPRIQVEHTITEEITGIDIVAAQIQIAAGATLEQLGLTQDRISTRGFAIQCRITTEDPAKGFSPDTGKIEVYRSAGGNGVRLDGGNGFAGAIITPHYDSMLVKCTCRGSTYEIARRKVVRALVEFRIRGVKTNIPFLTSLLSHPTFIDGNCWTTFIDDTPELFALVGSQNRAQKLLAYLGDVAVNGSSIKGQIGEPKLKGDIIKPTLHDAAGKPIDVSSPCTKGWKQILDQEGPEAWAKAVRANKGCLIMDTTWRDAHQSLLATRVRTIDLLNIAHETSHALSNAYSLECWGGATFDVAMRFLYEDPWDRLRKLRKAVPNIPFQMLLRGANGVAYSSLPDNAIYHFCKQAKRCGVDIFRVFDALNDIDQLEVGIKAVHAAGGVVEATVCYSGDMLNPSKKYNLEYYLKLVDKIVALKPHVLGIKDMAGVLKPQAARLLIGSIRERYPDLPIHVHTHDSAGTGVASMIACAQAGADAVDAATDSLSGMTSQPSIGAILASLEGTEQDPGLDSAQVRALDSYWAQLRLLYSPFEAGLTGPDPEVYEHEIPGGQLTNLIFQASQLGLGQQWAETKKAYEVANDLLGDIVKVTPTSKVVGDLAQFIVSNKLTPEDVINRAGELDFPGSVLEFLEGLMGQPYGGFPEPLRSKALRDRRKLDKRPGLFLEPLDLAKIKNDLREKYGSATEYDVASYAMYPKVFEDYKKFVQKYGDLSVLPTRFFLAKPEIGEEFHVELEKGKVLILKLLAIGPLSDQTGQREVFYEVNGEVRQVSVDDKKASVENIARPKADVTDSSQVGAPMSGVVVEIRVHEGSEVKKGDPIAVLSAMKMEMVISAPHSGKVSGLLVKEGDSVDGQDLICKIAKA
The description is as above. Conditions: read-out: + 0 mM acetyl coenzyme A / Ki.

Assay [3] has as its target T1, RePC. Described as above. Conditions: read-out: + 0 mM acetyl coenzyme A / Ki.
Assay [4] has as its target T2, AnPC. The assay is described as follows: shift of L-aspartate Ki in coupled assay. Conditions: 0.1 mM acetyl CoA; competes with L-aspartate, no activation; pH 7.8, 25 °C.

Like-named read-outs stand apart in the source and are kept apart here.

As for `N[C@@H](CC(=O)O)C(=O)O` [L-aspartate], the figures for the Ki in assay [1], in assay [2] and in assay [3] were 6.2 ± 0.5 mM, 2.6 ± 0.1 mM and 4.7 ± 0.7 mM, respectively.
As for `CC(=O)SCCNC(=O)CCNC(=O)[C@H](O)C(C)(C)COP(=O)(O)OP(=O)(O)OC[C@H]1O[C@@H](n2cnc3c(N)ncnc32)[C@H](O)[C@@H]1OP(=O)(O)O` [acetyl CoA], the “shift of L-aspartate Ki in coupled assay” value in assay [4] is “This confirms that acetyl CoA does, indeed, bind to AnPC”.
